Results as given in patent US20060116343A1, “Sphingosine kinase-1 mediates gene expression regulation of a monocyte chemoattractant protein-1 gene” (priority 2004, published 2006).

What was measured:
Assay type in all cases: cell-based, human
[1] = tested on: MCP-1 gene expression in HMVECs; assay: cDNA microarray analysis of gene expression in stimulated HMVECs; settings: four hours; for MCP-1 gene expression in response to stimulus (microarray): thrombin 100 nM or TNF-α 20 ng/ml
Description: In an effort to rapidly assess the potential overall role of SK1 in endothelial cell function, a cDNA microarray analyses was performed in HMVEC in the absence and presence of the SK1 inhibitor DMS. The cells were stimulated through two receptor subtypes: G-protein coupled receptors, for which the Protease Activate Receptor (PAR) family was utilized with thrombin as the agonist and cytokine receptors with TNF-α as the agonist
Cell Culture—Adult human microvascular endothelial cells (HMVECs) (Cambrex) were cultured in EGM complete media (Cambrex). Cells were used between the third and sixth passages for all studies.
Microarray Study—Adult human microvascular endothelial cells (HMVECs) (Cambrex) were placed into culture (5% FBS) and stimulated with thrombin (100 nM) or TNF-α (20 ng/ml) in the absence or presence of DMS (10 μM), a potent inhibitor of sphingosine kinase. After four hours of stimulation, RNA was isolated (Tri-Reagent, Bio-Mol), DNAse treated and cleaned using the RNeasy maxi kit (Qiagen). Upon validation of RNA purity using the Agilent 2100 Bioanalyzer, RNA was then subjected to cDNA microarray analyses.
A cDNA microarray containing 3563 cDNA clones was used in this study. In the gene expression studies two types of replications were used, biological and technical. Duplicate biological samples were harvested for each experimental condition for the initial microarray analyses. Additionally technical replication was employed as all samples were run in triplicate on separate microarrays. The microarray data from each sample were subjected to outlier removal based on technical replication and normalization based on both the technical and biological replication. The normalization consisted of an initial normalization between hybridization replicates within a single sample, followed by a secondary normalization across all samples within the study (Shaw et al., J Mol Microbiol Biotechnol, 2003, 5:105-122). […] After cleanup and subsequent normalizations, a single ratio was calculated for each treatment to its assigned control. […]

[2] = tested on: MCP-1 protein secretion from HMVECs; assay: MCP-1 ELISA of HMVEC supernatant; settings: 24 hours; for effect of inhibitor pretreatment on induced MCP-1 protein secretion: DMS 10 μM, Bay11-7092 10 μM, GF109203x 1 μM, PD98059 10 μM, stimulation with Thrombin 100 nM, PAR-1-AP 100 nM or (Thrombin 0.1 ng/ml); for MCP-1 protein secretion in response to stimulus (ELISA): thrombin 100 nM or varying concentrations of PAR-activating peptides
Description: HMVECs were placed into culture and stimulated with Thrombin (100 nM) or varying concentrations of PAR-activating peptides. 24 hours later, we used ELISA to detect secretion of MCP-1 into supernatant.
MCP-1 ELISA—HMVECs were placed into culture in 96-well dishes (2×10^3 cells/well) and grown for 24 hours in complete growth media. Cells were transfected with control non-silencing siRNA or siRNAs for hSK1 or hSK2 in serum-free Opti-MEM (Gibco) for 4 hours. Cells were then allowed to grow for 24 hours in media containing 10% FBS, after which the cells were serum starved in 0.5% FBS media overnight. Cells were subsequently stimulated with fresh 0.5% FBS containing media and incubated under various experimental conditions for an additional 24 hours. Where indicated, cells were pre-incubated with specific compound inhibitors, for 20 minutes, prior to stimulation. Supernatants were collected and analyzed by ELISA (Cell Sciences).
HMVECs were transfected with siRNAs (1.6 μg), hSK1-specific, hSK2-specific or control non-silencing siRNAs. After 48 hours, cells were stimulated with Thrombin (100 nM), PAR-1-AP (300 μM) or PAR-4-AP (600 μM). ELISA was performed to detect MCP-1 secretion into cell supernatant. […] Furthermore, basal levels of MCP-1 protein secretion appeared to be effected as well, as the level of MCP-1 protein secretion in cells that were unstimulated or stimulated with PAR-4-AP was decreased from cells transfected with hSK1 specific siRNA.
HMVECs were placed into culture overnight, and pretreated with inhibitors to hSK (DMS 10 μM), NF-κB (Bay11-7092 10 μM), PKC (GF109203x 1 μM), or Erk (PD98059 10 μM) prior to stimulation with Thrombin (100 nM), PAR-1-AP (TFLLRN 100 nM), or (Thrombin 0.1 ng/ml). ELISAs were performed 24 hours after stimulation to measure the amount of MCP-1 secretion. […] Furthermore we observed that NF-κB activity is a prerequisite for MCP-1 expression as well, as pretreatment with the NF-κB inhibitor, Bay11-7092, abrogated the induction of MCP-1 protein secretion by all agonists.
HMVECs were placed into culture overnight, and pretreated with inhibitors to hSK (DMS 10 μM), NF-κB (Bay11-7092 10 μM), PKC (GF109203×1 μM), or Erk (PD98059 10 μM) prior to stimulation with 5 μM S1P. ELISAs were performed to detect the levels of secreted MCP-1 protein. […] There was no elevation of MCP-1 protein by the external addition of S1P. Therefore, we rule out a role for S1P receptors in the hSK-dependent release of MCP-1 from HMVECs.

[3] = tested on: MCP-1 transcripts in HMVECs; assay: Quantitative RT-PCR of MCP-1 transcripts in stimulated HMVECs; settings: thrombin 100 nM
Excerpt: In the presence of hSK1-specific siRNAs, induction of MCP-1 was inhibited whereas in the presence of hSK2-specific or control non-silencing siRNAs, MCP-1 induction was not affected.
Evaluation of siRNA Transfection Efficiency and Silencing Capabilities—Small interfering RNAs (siRNAs) were designed and synthesized to target either sequences for hSK1, SEQ ID NO: 1 ([…]) or hSK2, SEQ ID NO:2 ([…]) transcripts as well as control non-silencing siRNA, SEQ ID NO:3 ([…]), which has no sequence target in the human genome (Qiagen). The oligonucleotides were fluorescein-conjugated on the 3′ end of the sense strand, which facilitated visualization of transfection efficiency by fluorescence confocal microscopy (LSM 510, Zeiss). […] For experimental studies RNA were isolated, DNAse treated and subjected to quantitative RT-PCR analyses to detect transcript levels of hSK1, hSK2, MCP-1 and control 18S transcripts using predesigned primers from Applied Biosystems. […]
Quantitative RT-PCR—HMVECs were placed into culture overnight and stimulated with thrombin (100 nM) after which RNA was isolated and DNAse treated. TaqMan® quantitative RT-PCRs were performed in triplicate as validation of microarray analyses according to manufacturers instructions (Applied Biosystems). The quantity mean for each detector was normalized to that of the 18S detector.

TNF-α
MCP-1 gene expression in response to stimulus (microarray) [1]: induced

CCCCCCCCCCCCC/C=C/[C@@H](O)[C@H](CO)N(C)C [DMS, dimethylsphingosine]
effect on thrombin- or PAR-1 agonist peptide-stimulated secretion of MCP-1 protein ([2]; HMVECs pretreated with DMS prior to stimulation): inhibited secretion of MCP-1 protein
effect of inhibitor pretreatment on induced MCP-1 protein secretion ([2]; HMVECs): hSK activity is required
effect on thrombin- and TNF-α-induced MCP-1 gene expression (microarray) ([1]; DMS 10 μM added prior to stimulation with thrombin 100 nM or TNF-α 20 ng/ml): inhibited

CN(C)CCCn1cc(C2=C(c3c[nH]c4ccccc34)C(=O)NC2=O)c2ccccc21 [GF109203x]
effect of inhibitor pretreatment on induced MCP-1 protein secretion ([2]; HMVECs): intermediate effect

COc1cccc(-c2cc(=O)c3ccccc3o2)c1N [PD98059]
effect of inhibitor pretreatment on induced MCP-1 protein secretion ([2]; HMVECs): no effect

CCCCCCCCCCCCC/C=C/[C@@H](O)[C@@H](N)COP(=O)(O)O [S1P, Sphingosine-1-phosphate]
MCP-1 protein secretion after external addition of S1P ([2]; HMVECs, 5 μM S1P): no elevation

TFLLRN [PAR-1-AP]
MCP-1 protein secretion in response to stimulus (ELISA) ([2]; HMVECs): stimulated secretion of MCP-1

thrombin
MCP-1 protein secretion in response to stimulus (ELISA) ([2]; HMVECs): augmented
MCP-1 gene expression in response to stimulus (microarray) [1]: induced
MCP-1 transcripts in response to stimulus (quantitative RT-PCR) [3]: induction of MCP-1 transcripts
